According to PubChem BioAssay AID248 (DTP/NCI, 2004):
Values joined by “and” are separate entries in the source; they are usually repeats but may differ in a detail not shown here. Equal entries are not always repeated. Inconclusive results and toxic doses are left out. Cut-off read from the data, not from the text of the source: active = T/C of 150% or more; inactive = T/C below 125%.

System: L1210 leukemia ip in BDF1 mice, survival T/C
Experiment: NCI In Vivo Anticancer Drug Screen. Data for tumor model L1210 Leukemia (intraperitoneal) in B6D2F1 (BDF1) mice
Conditions: endpoint: mean survival time, higher = longer survival
Summary of the method: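 Mice bearing the transplanted tumor received compound or vehicle. Survival of the treated group was divided by that of the vehicle-treated control group to give the ratio.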

[1] = dose: 100.0 mg/kg/injection, schedule: Q04DX003 (ip), vehicle: Klucel (hydroxypropylcellulose) (HPC)
[2] = dose: 200.0 mg/kg/injection, schedule: Q04DX003 (ip), vehicle: Klucel (hydroxypropylcellulose) (HPC)
[3] = dose: 400.0 mg/kg/injection, schedule: Q04DX003 (ip), vehicle: Klucel (hydroxypropylcellulose) (HPC)
[4] = dose: 100.0 mg/kg/injection, schedule: Q04DX003 (ip), vehicle: saline with Tween-80
[5] = dose: 200.0 mg/kg/injection, schedule: Q04DX003 (ip), vehicle: saline with Tween-80
[6] = dose: 400.0 mg/kg/injection, schedule: Q04DX003 (ip), vehicle: saline with Tween-80
[7] = dose: 100.0 mg/kg/injection, schedule: Q04DX002 (ip), vehicle: saline
[8] = dose: 200.0 mg/kg/injection, schedule: Q04DX002 (ip), vehicle: saline

Measured: T/C

Cc1ccccc1NC(=S)Nc1ccccc1
inactive: dose: 100.0 mg/kg/injection, schedule: Q04DX002 (ip), vehicle: gum acacia 96 % of control | dose: 200.0 mg/kg/injection, schedule: Q04DX002 (ip), vehicle: gum acacia 96 % of control | dose: 400.0 mg/kg/injection, schedule: Q04DX002 (ip), vehicle: gum acacia 89 % of control

Cc1ccc(NC(=O)Oc2cc(=O)oc3ccccc23)c([N+](=O)[O-])c1
inactive: [1] 89 % of control | [2] 94 % of control | [3] 96 % of control

O/C(=C\C(=S)S)c1ccc(Cl)cc1
inactive: dose: 0.06 mg/kg/injection, schedule: Q01DX009 (ip), vehicle: saline with Tween-80 103 % of control | dose: 0.12 mg/kg/injection, schedule: Q01DX009 (ip), vehicle: saline with Tween-80 105 % of control | dose: 0.25 mg/kg/injection, schedule: Q01DX009 (ip), vehicle: saline with Tween-80 98 % of control | dose: 0.5 mg/kg/injection, schedule: Q01DX009 (ip), vehicle: saline with Tween-80 112 % of control and 120 % of control | dose: 1.0 mg/kg/injection, schedule: Q01DX009 (ip), vehicle: saline with Tween-80 102 % of control and 107 % of control | dose: 1.0 mg/kg/injection, schedule: Q04DX003 (ip), vehicle: saline with Tween-80 103 % of control | dose: 2.0 mg/kg/injection, schedule: Q01DX009 (ip), vehicle: saline with Tween-80 107 % of control | dose: 2.0 mg/kg/injection, schedule: Q04DX003 (ip), vehicle: saline with Tween-80 97 % of control | dose: 4.0 mg/kg/injection, schedule: Q04DX003 (ip), vehicle: saline with Tween-80 97 % of control | dose: 8.0 mg/kg/injection, schedule: Q04DX003 (ip), vehicle: saline with Tween-80 105 % of control

Cc1nc2ccccc2cc1CO
inactive: [4] 105 % of control | [5] 102 % of control | [6] 102 % of control

C/C(=N/N(C)C)c1ccccc1
inactive: [7] 97 % of control | [1] 112 % of control | [8] 108 % of control | [2] 95 % of control | dose: 400.0 mg/kg/injection, schedule: Q04DX002 (ip), vehicle: saline 108 % of control | [3] 90 % of control

COc1ccc(C(=O)C(C)CC(=O)O)cc1OC (configuration not stated)
inactive: dose: 75.0 mg/kg/injection, schedule: Q01DX009 (ip), vehicle: Klucel (hydroxypropylcellulose) (HPC) 102 % of control | dose: 150.0 mg/kg/injection, schedule: Q01DX009 (ip), vehicle: Klucel (hydroxypropylcellulose) (HPC) 94 % of control | dose: 300.0 mg/kg/injection, schedule: Q01DX009 (ip), vehicle: Klucel (hydroxypropylcellulose) (HPC) 91 % of control

Oc1ccc2c(c1)Cc1cc3ccccc3nc1-2
inactive: dose: 50.0 mg/kg/injection, schedule: Q01DX001 (ip), vehicle: saline 98 % of control | dose: 100.0 mg/kg/injection, schedule: Q01DX001 (ip), vehicle: saline 95 % of control | dose: 200.0 mg/kg/injection, schedule: Q01DX001 (ip), vehicle: saline 97 % of control | dose: 400.0 mg/kg/injection, schedule: Q01DX001 (ip), vehicle: saline 93 % of control

C(=C\c1ccccc1)/CN1CCOCC1
inactive: dose: 25.0 mg/kg/injection, schedule: Q04DX002 (ip), vehicle: saline 94 % of control | dose: 50.0 mg/kg/injection, schedule: Q04DX002 (ip), vehicle: saline 94 % of control | [7] 105 % of control

C/C=C/C=C\COC(=O)C(C)(C)CCC
inactive: dose: 100.0 mg/kg/injection, schedule: Q01DX009 (ip), vehicle: saline with Tween-80 90 % of control | dose: 100.0 mg/kg/injection, schedule: Q04DX002 (ip), vehicle: saline with Tween-80 98 % of control | [7] 96 % of control | dose: 200.0 mg/kg/injection, schedule: Q01DX009 (ip), vehicle: saline with Tween-80 90 % of control | dose: 200.0 mg/kg/injection, schedule: Q04DX002 (ip), vehicle: saline with Tween-80 95 % of control | [8] 103 % of control | dose: 400.0 mg/kg/injection, schedule: Q01DX009 (ip), vehicle: saline with Tween-80 93 % of control | dose: 400.0 mg/kg/injection, schedule: Q04DX002 (ip), vehicle: saline with Tween-80 95 % of control | dose: 800.0 mg/kg/injection, schedule: Q04DX002 (ip), vehicle: saline with Tween-80 95 % of control

COc1ccc(Nc2ccc([N+](=O)[O-])cc2[N+](=O)[O-])cc1
inactive: [4] 96 % of control | [5] 94 % of control | [6] 91 % of control
